# Test results from US5378846A, “1,2,3,4-tetrahydropyrrolo-[1,2-a]-pyrazine derivatives” (Russian-American Institute For New Drug Development, priority 1993, dated 1995).
# Entries after “also recorded” stand apart in the source; their conditions may differ.
# Assays:
# BALB/c mice = experiment: Open field test, BALB/c mice; format: in vivo, male BALB/c mice; details: for Central activity / Crosses of Squires / Emotionality (N. of defec.) / Total locomotor activity / Vert. stands: BALB/c, i.p.
# Procedure: The effects of Compound 1 on different emotional stress reactions (ESR) in male mice of C57 B1/6 and BALB/c strains were studied. ESR indices were evaluated as changes in mice ambulations, defecations and motor activity in an "open field" test (Seredenin S. B., Vedernikov, A. A., Bull. Exp. Biol. Med., 100, No. 7, 38-40 (1979), which is incorporated herein by reference). Compound 1 was injected in different doses intraperitoneally 45 min. before test.
# [1] = test system: aggressive behavior in mice; experiment: Antiaggressive activity (threshold of aggressive behavior, electrified floor); format: in vivo, outbred male mice
# Procedure: Compounds according to the present invention were checked for their influence on gross behaviour. The experiments described herein (Examples 11, 12, 13, 14, and 15) were carried out using outbred male mice weighing approximately 18-24 g. Each substance was administered intraperitoneally 45 min. before the experiment. Locomotor activity was estimated individually for each animal for 3 min. using an actometer `Era-1` (Russia).
# The effect of Compound 1 on the threshold of the aggressive behavior was determined in the experiment on outbred mice (R. Tedesci et al., J. Pharmacol. Exp. Ther., 125, 28-34, (1959), which is incorporated herein by reference). The paired mice were placed on the electrified floor. The strength of the current, which provoked the fighting, was recorded.
smiles,measurement,setting,value
"O=C(O)CCC(=O)O.c1cc2n(c1)CCNC2 [Compound 1, 1,2,3,4-tetrahydropyrrolo-[1,2-a]-pyrazine hydrosuccinate]","Open field behavior of BALB/c mice, in words",BALB/c mice; 2.5 and 5.0 mg/kg i.p.,"produces activating (anxiolytic) effect in initially low active BALB/c mice; also recorded: caused ambulation increase elevating the central activity, and defecation decrease in BALB/c mice"
same,Central activity,BALB/c mice; 0.1 mg/kg,0.0
same,Crosses of Squires,BALB/c mice; 0.1 mg/kg,21.2 ± 5.8
same,Emotionality (N. of defec.),BALB/c mice; 0.1 mg/kg,0.5 ± 0.17
same,Total locomotor activity,BALB/c mice; 0.1 mg/kg,21.2 ± 5.8
same,Vert. stands,BALB/c mice; 0.1 mg/kg,0.0
same,Central activity,BALB/c mice; 1.0 mg/kg,0.4 ± 0.3
same,Crosses of Squires,BALB/c mice; 1.0 mg/kg,25.6 ± 4.6
same,Emotionality (N. of defec.),BALB/c mice; 1.0 mg/kg,1.2 ± 0.13
same,Total locomotor activity,BALB/c mice; 1.0 mg/kg,26.1 ± 4.6
same,Vert. stands,BALB/c mice; 1.0 mg/kg,0.1 ± 0.1
same,Central activity,BALB/c mice; 5.0 mg/kg,2.4 ± 0.9
same,Crosses of Squires,BALB/c mice; 5.0 mg/kg,29.8 ± 5.2
same,Emotionality (N. of defec.),BALB/c mice; 5.0 mg/kg,0.45 ± 0.11
same,Total locomotor activity,BALB/c mice; 5.0 mg/kg,33.0 ± 6.1
same,Vert. stands,BALB/c mice; 5.0 mg/kg,0.9 ± 0.5
same,"Effect on threshold of aggressive response, in words",[1],increase the threshold of aggressive response; also recorded: able to enhance the threshold of aggressive response
same,Aggression threshold,[1]; 0.5 mg/kg i.p.,67.2 ± 1.7 V
same,Aggression threshold,[1]; 5.0 mg/kg i.p.,90.8 ± 4.9 V
